These results are taken from ChEMBL document CHEMBL1177723, “Severe acute respiratory syndrome coronavirus papain-like novel protease inhibitors: design, synthesis, protein-ligand X-ray structure and biological evaluation” (J Med Chem, 2010).

Assay [1] can be described thus: Inhibition of SARS coronavirus papain-like protease expressed in Escherichia coli. Set-up: species or system Severe acute respiratory syndrome-related coronavirus.
In assay [2] the test system is SARS-CoV. Nature of the assay: Antiviral activity against SARS coronavirus infected in african green monkey Vero E6 cells assessed as inhibition of viral replication after 48 hrs by luminescence assay. It counts as functional, organism-based, Severe acute respiratory syndrome-related coronavirus.
Where [3] appears, read: Severe acute respiratory syndrome-related coronavirus, Vero, 48 h, read-out: EC50.

With `CC(C)(c1cccc2ccccc12)N1CCC(C(=O)NCc2ccc3c(c2)OCO3)CC1`, the IC50 in assay [1] is above 200 µM.

In the case of `COc1ccccc1CNC(=O)C1CCN([C@H](C)c2cccc3ccccc23)CC1`, in assay [2] (setting [3]), the EC50 stood at 11.6 µM. For the same compound, the IC50 in assay [1] came out at 1.21 µM.

On to `C[C@@H](c1cccc2ccccc12)N1CCC(C(=O)NCc2ccc3c(c2)OCO3)CC1`, for which, in assay [2] (setting [3]), the half-maximal effective concentration (EC50) worked out at 9.1 µM. The compound further showed a half-inhibitory concentration (IC50) in assay [1] of 0.56 µM.

In assay [1], `O=C(NCc1ccc2c(c1)OCO2)C1CCN(Cc2ccc3ccccc3c2)CC1` displayed an IC50 of 100 µM.

As to `O=C(NCc1ccc2c(c1)OCO2)C1CCN(Cc2cccc3ccccc23)CC1`, in assay [1], it took 45 µM to reach half-maximal inhibition (IC50).

Regarding `COc1cccc(CNC(=O)C2CCN([C@H](C)c3cccc4ccccc34)CC2)c1`, the EC50 in assay [2] (setting [3]) came to 9.7 µM. In addition, in assay [1], half-maximal inhibition (IC50) required 0.34 µM.

Regarding `COc1ccc(CNC(=O)C2CCN([C@H](C)c3cccc4ccccc34)CC2)cc1`, the EC50 in assay [2] (setting [3]) was determined as 10.2 µM. Moreover, the IC50 in assay [1] was found to be 0.34 µM.

In the case of `C[C@H](c1cccc2ccccc12)N1CCC(C(=O)NCc2ccc3c(c2)OCO3)CC1`, in assay [2] (setting [3]), the EC50 was found to be 9.1 µM.

Turning to `COc1ccc(CNC(=O)C2CCN(Cc3cccc4ccccc34)CC2)cc1`, the concentration giving a half-maximal response (EC50) entry in assay [2] (vero) is “Not Active”. This compound had an IC50 in assay [1] of 59.2 µM.

`COc1ccccc1CNC(=O)C1CCN(Cc2cccc3ccccc23)CC1`: inhibition in assay [1] was half-maximal at 116 µM (IC50).

In turn, `COc1cccc(CNC(=O)C2CCN(Cc3cccc4ccccc34)CC2)c1` displayed an IC50 in assay [1] of 30 µM.

As to `COc1cccc(CNC(=O)C2CCN([C@@H](C)c3ccc4ccccc4c3)CC2)c1`, in assay [2] (setting [3]), the concentration for a half-maximal effect (EC50) was above 25 µM. The IC50 in assay [1] stood at 5.8 µM.

Regarding `COc1cccc(CNC(=O)C2CCN([C@H](C)c3ccc4ccccc4c3)CC2)c1`, inhibition in assay [1] was half-maximal at 13.2 µM (IC50).

`COc1ccccc1CNC(=O)C1CCN([C@H](C)c2ccc3ccccc3c2)CC1` gave an IC50 in assay [1] of 34.8 µM.

`COc1ccc(CNC(=O)C2CCN(C(C)c3ccc4ccccc4c3)CC2)cc1` (racemic): the 50% inhibitory concentration (IC50) in assay [1] was above 100 µM.
